Laboratory results published in patent US12421252B2, “Spiro (isobenzofuranazetidine) compounds for the treatment of autoimmune disease” (Hoffmann-La Roche Inc., priority 2020, dated 2025).
Blank lines part the entries; values can stand above or below the compound they belong to.

What was measured:
hTLR9 = target: T1, hTLR9 (Homo sapiens, UniProt Q9NR96); set-up: host or cells: HEK; details: data disclosed in US20150105370; read-out: HEK/hTLR9 IC50; cited from earlier work
T1 sequence (Q9NR96 26-1032): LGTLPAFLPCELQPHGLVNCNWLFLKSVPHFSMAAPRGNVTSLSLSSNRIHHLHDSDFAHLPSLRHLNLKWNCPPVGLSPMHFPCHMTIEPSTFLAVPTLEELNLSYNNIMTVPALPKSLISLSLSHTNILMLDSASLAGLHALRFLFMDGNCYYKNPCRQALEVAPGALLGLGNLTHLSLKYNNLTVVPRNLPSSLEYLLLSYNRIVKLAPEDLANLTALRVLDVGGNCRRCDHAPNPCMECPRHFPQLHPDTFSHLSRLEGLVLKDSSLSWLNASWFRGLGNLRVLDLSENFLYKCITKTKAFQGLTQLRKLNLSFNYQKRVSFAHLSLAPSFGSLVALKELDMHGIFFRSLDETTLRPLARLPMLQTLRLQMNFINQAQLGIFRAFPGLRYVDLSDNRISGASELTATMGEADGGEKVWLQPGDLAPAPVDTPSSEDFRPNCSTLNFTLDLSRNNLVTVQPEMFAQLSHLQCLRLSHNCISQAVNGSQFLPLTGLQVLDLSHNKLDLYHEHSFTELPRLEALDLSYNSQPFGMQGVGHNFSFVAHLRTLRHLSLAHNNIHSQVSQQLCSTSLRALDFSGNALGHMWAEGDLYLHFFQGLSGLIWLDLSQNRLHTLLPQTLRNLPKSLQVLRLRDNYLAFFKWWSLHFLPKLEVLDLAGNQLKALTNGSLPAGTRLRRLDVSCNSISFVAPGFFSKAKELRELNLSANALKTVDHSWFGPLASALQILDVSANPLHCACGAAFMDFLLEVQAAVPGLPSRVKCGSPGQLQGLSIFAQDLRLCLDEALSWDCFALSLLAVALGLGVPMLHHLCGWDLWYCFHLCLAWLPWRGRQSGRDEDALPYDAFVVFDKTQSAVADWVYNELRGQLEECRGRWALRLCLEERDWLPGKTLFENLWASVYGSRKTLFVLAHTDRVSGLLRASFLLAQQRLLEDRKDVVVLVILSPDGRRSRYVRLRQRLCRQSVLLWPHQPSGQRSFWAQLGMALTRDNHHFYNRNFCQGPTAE

human TLR8 = target: T2, human TLR8 (Homo sapiens, UniProt Q9NR97); test: HEK293-Blue-hTLR-8 cells assay; format: cell-based; details: HEK293-Blue-hTLR8 cells, R848 stimulation, 20 hrs, SEAP reporter; read-out: HEK/hTLR8 IC50
T2 sequence (Q9NR97 27-1041): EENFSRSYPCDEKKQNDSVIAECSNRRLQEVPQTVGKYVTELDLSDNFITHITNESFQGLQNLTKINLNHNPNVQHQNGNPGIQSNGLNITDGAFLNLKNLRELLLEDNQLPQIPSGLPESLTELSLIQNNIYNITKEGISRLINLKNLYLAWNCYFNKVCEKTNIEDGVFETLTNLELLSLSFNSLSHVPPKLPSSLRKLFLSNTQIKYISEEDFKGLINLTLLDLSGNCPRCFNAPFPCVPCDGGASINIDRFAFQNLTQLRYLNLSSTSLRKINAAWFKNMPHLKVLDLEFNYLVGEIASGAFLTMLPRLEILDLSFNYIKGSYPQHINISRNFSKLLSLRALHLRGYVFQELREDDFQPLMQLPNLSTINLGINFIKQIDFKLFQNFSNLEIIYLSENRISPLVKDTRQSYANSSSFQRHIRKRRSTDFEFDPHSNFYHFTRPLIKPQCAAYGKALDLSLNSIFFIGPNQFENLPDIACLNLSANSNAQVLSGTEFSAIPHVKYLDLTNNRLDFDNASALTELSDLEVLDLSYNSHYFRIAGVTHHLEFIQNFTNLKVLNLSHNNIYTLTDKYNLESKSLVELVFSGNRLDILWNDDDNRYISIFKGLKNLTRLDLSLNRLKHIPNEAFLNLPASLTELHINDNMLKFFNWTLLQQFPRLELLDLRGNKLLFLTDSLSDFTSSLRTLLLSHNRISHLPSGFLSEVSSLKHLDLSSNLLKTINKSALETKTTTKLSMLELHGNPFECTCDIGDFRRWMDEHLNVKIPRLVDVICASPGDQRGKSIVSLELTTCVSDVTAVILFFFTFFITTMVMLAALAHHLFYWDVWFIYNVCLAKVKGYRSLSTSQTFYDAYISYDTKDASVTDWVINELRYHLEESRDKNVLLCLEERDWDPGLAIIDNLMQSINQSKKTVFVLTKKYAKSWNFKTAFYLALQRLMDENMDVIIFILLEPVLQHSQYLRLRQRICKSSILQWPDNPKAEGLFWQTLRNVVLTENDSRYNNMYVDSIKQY
Source text: HEK293-Blue-hTLR-8 cells assay:
A stable HEK293-Blue-hTLR-8 cell line was purchased from InvivoGen (Cat. #: hkb-htlr8, San Diego, California, USA). These cells were originally designed for studying the stimulation of human TLR8 by monitoring the activation of NF-κB. A SEAP (secreted embryonic alkaline phosphatase) reporter gene was placed under the control of the IFN-β minimal promoter fused to five NF-κB and AP-1-binding sites. The SEAP was induced by activating NF-κB and AP-1 via stimulating HEK-Blue hTLR8 cells with TLR8 ligands. Therefore the reporter expression was declined by TLR8 antagonist under the stimulation of a ligand, such as R848, for incubation of 20 hrs. The cell culture supernatant SEAP reporter activity was determined using QUANTI-Blue™kit (Cat. #: rep-qb1, Invivogen, San Diego, Ca, USA) at a wavelength of 640 nm, a detection medium that turns purple or blue in the presence of alkaline phosphatase.
HEK293-Blue-hTLR8 cells were incubated at a density of 250,000˜450,000 cells/mL in a volume of 170 μL in a 96-well plate in Dulbecco's Modified Eagle's medium (DMEM) containing 4.5 g/L glucose, 50 U/mL penicillin, […], […], 2 mM L-glutamine, 10% (v/v) heat-inactivated fetal bovine serum with addition of 20 μL test compound in a serial dilution in the presence of final DMSO at 1% and 10 μL of 60 uM R848 in above DMEM, perform incubation under 37° C. in a CO2 incubator for 20 hrs. Then 20 μL of the supernatant from each well was incubated with 180 μL Quanti-blue substrate solution at 37° C. for 2 hrs and the absorbance was read at 620-655 nm using a spectrophotometer. The signaling pathway that TLR8 activation leads to downstream NF-κB activation has been widely accepted, and therefore similar reporter assay was modified for evaluating TLR8 antagonist.

CYP3A4 = target: T3, CYP3A4 (Homo sapiens, UniProt P08684); test: CYP inhibition assay in human liver microsome, CYP3A4; format: in vitro ADME; details: percentage inhibition, substrate Midazolam 5 μM, <0: not or weak inhibitor
T3 construct: tissue BD-Gentest 452117; host or cells: human liver microsomes
T3 sequence (P08684 whole entry): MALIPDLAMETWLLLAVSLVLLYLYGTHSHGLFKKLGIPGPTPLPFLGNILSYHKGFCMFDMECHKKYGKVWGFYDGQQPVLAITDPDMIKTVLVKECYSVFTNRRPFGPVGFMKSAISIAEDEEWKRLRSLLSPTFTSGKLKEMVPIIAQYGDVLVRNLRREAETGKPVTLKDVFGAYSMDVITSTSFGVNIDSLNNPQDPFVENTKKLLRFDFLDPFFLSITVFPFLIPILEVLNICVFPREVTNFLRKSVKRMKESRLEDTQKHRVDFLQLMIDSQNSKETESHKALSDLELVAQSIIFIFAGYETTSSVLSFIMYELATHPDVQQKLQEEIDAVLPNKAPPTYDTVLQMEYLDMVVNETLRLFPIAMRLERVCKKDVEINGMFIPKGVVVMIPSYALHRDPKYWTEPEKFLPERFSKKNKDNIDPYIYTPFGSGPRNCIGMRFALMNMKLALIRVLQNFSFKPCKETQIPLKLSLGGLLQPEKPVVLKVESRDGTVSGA
Method: (§1) This is a high throughput screening assay used for assessment of reversible inhibition of CYP2C9, CYP2D6, and CYP3A4 activity of test compounds in human liver microsome (HLM) in early discovery stage.
(§2) Procedure 10 mM DMSO stock solutions of test compounds were diluted in DMSO to generate 2 mM intermediate stock solution. 250 nL of intermediate stock solution were transferred in duplicate into 3 separate 384 well microtitre plates (assay-ready plates). A mixture of HLM and each substrate was made up. 45 μL of HLM substrate mix was then transferred to each well of an assay ready plate and mixed. The negative (solvent) and positive controls (standard inhibitor for each CYP) were included in each assay ready plate. The assay ready plate was warmed to 37° C. in an incubator over 10 minutes. 5 μL pre-warmed NADPH regenerating system was added to each incubation well to start the reaction. Final incubation volume was 50 μL. The assay plate then was placed back in the 37° C. incubator. After incubation (10 minutes for CYP2D6) for 5 minutes, incubates were quenched by addition of 50 μL 100% acetonitrile containing internal standards (400 ng/mL 13C6-4′-OH-Diclofenac, 20 ng/mL D3-Dextrorphan and 20 ng/mL D4-1′OH-Midazolam). The supernatants were collected for RapidFire/MS/MS analysis.
(§3) RapidFire online solid phase extraction/sample injection system (Agilent) coupled with API4000 triple quadrupole mass spectrometer (AB Sciex) were used for sample analysis. The mobile phase composed of acetonitrile and water supplemented with 0.1% formic acid. A C4 solid phase extraction cartridge is used for sample separation. MS detection is achieved in positive ion MRM mode.
(§4) Data analysis Peak areas for substrate, metabolite and internal standard are determined using the RapidFire integrator software (version 3.6.12009.12296). Peak area ratios (PAR) of metabolite and internal standard (stable-labelled metabolite) are then calculated. The measurement window for each experiment is then defined: PAR (0% activity)=average PAR for all incubations containing concentrated inhibitor; Par (100% activity)=average PAR for all incubations containing no inhibitor (DMSO controls); % Activity (test inhibitor)=[PAR (test inhibitor)-PAR (0% activity)]/[PAR (100% activity)-PAR (0% activity)]; % Inhibition (test inhibitor)=100-% Activity (test inhibitor).

CYP2C9 = target: T4, CYP2C9 (Homo sapiens, UniProt P11712); test: CYP inhibition assay in human liver microsome, CYP2C9; format: in vitro ADME; details: percentage inhibition, substrate Diclofenac 5 μM, <0: not or weak inhibitor
T4 construct: tissue BD-Gentest 452117; host or cells: human liver microsomes
T4 sequence (P11712 whole entry): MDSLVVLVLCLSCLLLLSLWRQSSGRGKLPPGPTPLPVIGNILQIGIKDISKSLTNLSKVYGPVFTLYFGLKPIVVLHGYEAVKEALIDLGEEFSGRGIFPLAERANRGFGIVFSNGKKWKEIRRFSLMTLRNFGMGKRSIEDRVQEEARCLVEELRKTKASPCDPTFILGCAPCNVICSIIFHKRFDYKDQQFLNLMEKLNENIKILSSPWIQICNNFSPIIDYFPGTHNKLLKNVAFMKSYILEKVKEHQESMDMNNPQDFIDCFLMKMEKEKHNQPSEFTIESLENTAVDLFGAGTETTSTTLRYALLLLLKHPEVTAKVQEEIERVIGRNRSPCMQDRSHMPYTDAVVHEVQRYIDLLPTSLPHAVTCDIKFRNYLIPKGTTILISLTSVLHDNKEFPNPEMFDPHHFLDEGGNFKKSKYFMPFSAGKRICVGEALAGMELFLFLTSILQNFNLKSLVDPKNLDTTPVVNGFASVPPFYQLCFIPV
Method: as §1, §2, §3, §4

CYP2D6 = target: T5, CYP2D6 (Homo sapiens, UniProt P10635); test: CYP inhibition assay in human liver microsome, CYP2D6; format: in vitro ADME; details: percentage inhibition, substrate Dextromethorphan 5 μM, <0: not or weak inhibitor
T5 construct: tissue BD-Gentest 452117; host or cells: human liver microsomes
T5 sequence (P10635 whole entry): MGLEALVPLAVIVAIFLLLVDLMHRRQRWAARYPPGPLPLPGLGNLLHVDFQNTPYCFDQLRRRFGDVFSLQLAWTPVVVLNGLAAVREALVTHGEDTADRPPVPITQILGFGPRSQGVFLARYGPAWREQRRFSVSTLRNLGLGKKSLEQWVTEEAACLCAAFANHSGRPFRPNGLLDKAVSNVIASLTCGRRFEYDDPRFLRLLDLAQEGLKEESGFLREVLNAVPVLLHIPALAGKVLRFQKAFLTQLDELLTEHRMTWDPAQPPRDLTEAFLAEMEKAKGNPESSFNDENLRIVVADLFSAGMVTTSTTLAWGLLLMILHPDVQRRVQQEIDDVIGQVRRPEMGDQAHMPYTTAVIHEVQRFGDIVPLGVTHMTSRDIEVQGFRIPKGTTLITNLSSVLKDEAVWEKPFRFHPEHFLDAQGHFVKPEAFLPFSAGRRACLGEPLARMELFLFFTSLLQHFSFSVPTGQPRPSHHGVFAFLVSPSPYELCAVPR
Method: as §1, §2, §3, §4

hERG channel = target: T6, hERG channel (Homo sapiens, UniProt Q12809); test: hERG channel inhibition assay (patch-clamp, CHO hERG cells); format: cell-based; details: CHO hERG cells, whole-cell patch-clamp; for IC20: human, CHO cells stably expressing hERG
T6 construct: expressed in transfected cells
T6 sequence (Q12809 whole entry): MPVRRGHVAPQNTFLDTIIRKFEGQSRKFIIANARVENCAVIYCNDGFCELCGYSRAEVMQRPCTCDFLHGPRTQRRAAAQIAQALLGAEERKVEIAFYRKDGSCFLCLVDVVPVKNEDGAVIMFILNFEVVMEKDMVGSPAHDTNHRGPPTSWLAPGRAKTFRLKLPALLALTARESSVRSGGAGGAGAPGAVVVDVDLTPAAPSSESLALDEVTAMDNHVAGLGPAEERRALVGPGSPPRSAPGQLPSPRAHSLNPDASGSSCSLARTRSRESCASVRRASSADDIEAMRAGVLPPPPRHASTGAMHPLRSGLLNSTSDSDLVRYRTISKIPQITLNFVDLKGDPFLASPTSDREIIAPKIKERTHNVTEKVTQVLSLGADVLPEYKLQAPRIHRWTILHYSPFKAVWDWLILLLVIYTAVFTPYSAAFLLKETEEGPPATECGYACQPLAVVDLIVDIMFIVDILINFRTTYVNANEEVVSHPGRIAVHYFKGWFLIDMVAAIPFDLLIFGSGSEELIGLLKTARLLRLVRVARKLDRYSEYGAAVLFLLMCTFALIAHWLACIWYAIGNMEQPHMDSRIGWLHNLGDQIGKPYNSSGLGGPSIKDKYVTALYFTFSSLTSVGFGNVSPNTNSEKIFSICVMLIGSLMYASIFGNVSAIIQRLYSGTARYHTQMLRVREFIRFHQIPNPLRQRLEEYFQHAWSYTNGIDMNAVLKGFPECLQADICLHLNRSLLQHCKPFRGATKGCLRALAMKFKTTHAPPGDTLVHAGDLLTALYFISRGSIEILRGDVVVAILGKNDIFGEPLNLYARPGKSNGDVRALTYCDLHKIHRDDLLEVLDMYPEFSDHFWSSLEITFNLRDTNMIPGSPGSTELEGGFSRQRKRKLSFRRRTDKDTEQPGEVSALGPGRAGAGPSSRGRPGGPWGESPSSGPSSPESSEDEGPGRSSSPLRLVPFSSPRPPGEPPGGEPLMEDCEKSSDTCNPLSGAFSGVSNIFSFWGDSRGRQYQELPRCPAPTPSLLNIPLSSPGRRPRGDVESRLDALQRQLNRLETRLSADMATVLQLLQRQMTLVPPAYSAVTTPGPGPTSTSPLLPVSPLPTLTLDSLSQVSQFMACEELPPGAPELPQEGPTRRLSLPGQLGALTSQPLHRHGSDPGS
Method: hERG Channel Inhibition Assay:
The hERG K+ channels were cloned in humans and stably expressed in a CHO (Chinese hamster ovary) cell line. CHOhERG cells were used for patch-clamp (voltage-clamp, whole-cell) experiments. Cells were stimulated by a voltage pattern to activate hERG channels and conduct IKhERG Currents (rapid delayed outward rectifier potassium current of the hERG channel). After the cells were stabilized for a few minutes, the amplitude and kinetics of IKhERG were recorded at a stimulation frequency of 0.1 Hz, (6 bpm). Thereafter, the test compound was added to the preparation at increasing concentrations. For each concentration, an attempt was made to reach a steady-state effect, usually, this was achieved within 3-10 min at which time the next highest concentration was applied. The amplitude and kinetics of IKhERG are recorded in each concentration of the drug which were compared to the control values (taken as 100%). (references: Redfern W S, Carlsson L, Davis A S, Lynch W G, MacKenzie I, Palethorpe S, Siegl P K, Strang I, Sullivan A T, Wallis R, Camm A J, Hammond T G. 2003; Relationships between preclinical cardiac electrophysiology, clinical QT interval prolongation and torsade de pointes for a broad range of drugs: evidence for a provisional safety margin in drug development. Cardiovasc. Res. 58:32-45, Sanguinetti M C, Tristani-Firouzi M. 2006; hERG potassium channels and cardiac arrhythmia. Nature 440:463-469, Webster R, Leishman D, Walker D. 2002; Towards a drug concentration effect relationship for QT prolongation and torsades de pointes. Curr. Opin. Drug Discov. Devel. 5:116-26).

SMILES: C[C@@H]1CN(c2ccc(C#N)c3ncccc23)C[C@H](CN2CC(NS(=O)(=O)c3ccc(F)cc3)C2)O1 [ER-894155]
IC50 (hTLR9): > 10 µM

SMILES: C[C@@H]1CN(c2ccc(C#N)c3ncccc23)C[C@H](CN2CC[C@@H](NC(=O)c3ccccc3)C2)O1 [ER-894544]
IC50 (hTLR9): > 6.2 µM

IC50 (human TLR8): 0.009 µM
SMILES: [2H]c1ccc2c(N3C[C@H](CN4CC5(C4)OCc4cc(N6CC7(CNCCO7)C6)ccc45)O[C@H](C)C3)ccc(C#N)c2n1 [Example 15, 2-deuterio-5-[(2R,6S)-2-methyl-6-[[6-(5-oxa-2,8-diazaspiro[3.5]nonan-2-yl)spiro[1H-isobenzofuran-3,3′-azetidine]-1′-yl]methyl]morpholin-4-yl]quinoline-8-carbonitrile]

CYP (%) 3A4 (CYP3A4): −8.5%
CYP (%) 2C9 (CYP2C9): −8.5%
CYP (%) 2D6 (CYP2D6): 5%
SMILES: C[C@@H]1CN(c2ccc(C#N)n3nccc23)C[C@H](CN2CC3(C2)OCc2cc(N4CC5(CN(C)C5)C4)ccc23)O1 [Example 8, 4-[(2R,6S)-2-methyl-6-[[6-(6-methyl-2,6-diazaspiro[3.3]heptan-2-yl)spiro[1H-isobenzofuran-3,3′-azetidine]-1′-yl]methyl]morpholin-4-yl]pyrazolo[1,5-a]pyridine-7-carbonitrile]

SMILES: Cc1nn(C)cc1S(=O)(=O)NC1CCN(C[C@H]2CN(c3ccc(C#N)c4ncccc34)C[C@@H](C)O2)CC1 [ER-894160]
IC50 (hTLR9): > 10 µM

CYP (%) 3A4 (CYP3A4): 12%
CYP (%) 2C9 (CYP2C9): 4%
CYP (%) 2D6 (CYP2D6): 5.5%
SMILES: [2H]c1ccc2c(N3C[C@H](CN4CC5(C4)OCc4cc(N6CC(C)(N)C6)ccc45)O[C@H](C)C3)ccc(C#N)c2n1 [Example 11, 5-[(2S,6R)-2-[[6-(3-amino-3-methyl-azetidin-1-yl)spiro[1H-isobenzofuran-3,3′-azetidine]-1′-yl]methyl]-6-methyl-morpholin-4-yl]-2-deuterio-quinoline-8-carbonitrile]
IC50 (hERG channel): > 20 µM
IC20 (hERG channel): 6.2 µM

SMILES: [2H]c1ccc2c(N3C[C@H](CN4CC5(C4)OCc4cc(N6CC(N)C6)ccc45)O[C@H](C)C3)ccc(C#N)c2n1 [Example 14, 5-[(2S,6R)-2-[[6-(3-aminoazetidin-1-yl)spiro[1H-isobenzofuran-3,3′-azetidine]-1′-yl]methyl]-6-methyl-morpholin-4-yl]-2-deuterio-quinoline-8-carbonitrile]
IC50 (hERG channel): > 20 µM
IC20 (hERG channel): > 10 µM
